From PMC7752915 (Cell Discovery, 2020)
Where a name gives a salt, the structure may show the parent alone. Read-outs that look alike come from different tables or passages of the source.

Legend:
SARS-CoV-2 [1] = assay: in vitro
in vitro = details: African green monkey
[2] = cited from earlier work
SARS-CoV-2 [3] = assay: microbe, parasite or virus in culture; details: Severe acute respiratory syndrome coronavirus 2, Vero C1008, 24 h, read-out: half maximal inhibitory concentration (IC50) of SARS-CoV-2 replication
SARS-CoV-2 [4] = type: cell-based; details: Vero E6 cells, MOI 0.05, 24 h p.i., viral titer in supernatant
[5] = tested on: COVID-19 patients with hypertension; assay: retrospective clinical investigation of hospitalized COVID-19 patients with hypertension as the only comorbidity; type: in vivo, human; details: for Admission to ICU / Invasive ventilation: number (%) of patients
[6] = cytotoxicity in Vero E6 cells, CCK-8 assay; details: African green monkey
SARS-CoV-2 [7] = details: for IC50: read-out: half maximal inhibitory concentration (IC50) of SARS-CoV-2 replication, viral RNA copy number in supernatant
SARS-CoV-2 [8] = assay: separate or combined application of CQ and CCB in Vero E6 cells, qRT-PCR and NP immunofluorescence; type: cell-based; details: MOI 0.05, 24 h p.i.
Vero E6 cells = assay: cytotoxicity in Vero E6 cells, CCK-8 assay; details: read-out: half cytotoxic concentration (CC50); Vero E6 cells, CCK-8 assay, 24 h
SARS-CoV-2 [9] = assay: time-of-addition assay (full-time, entry, post-entry treatment) in Vero E6 cells; type: cell-based
[10] = Supplementary Table S2, by treatment regimen
[11] = Amlodipine n = 19, listed as Amlodipine
[12] = Vero E6 cells, MOI 0.05, 24 h p.i., serial concentrations
[13] = Vero E6 cells, MOI 0.05, 24 h p.i.

COCCOC(=O)C1=C(C)NC(C)=C(C(=O)OC/C=C/c2ccccc2)C1c1cccc([N+](=O)[O-])c1 (stereo not shown) [cilnidipine]
selectivity ratio at 24 h (SARS-CoV-2 [1]): > 8.64 | CC50 at 24 h (in vitro): > 100 µM | Cmax ([2]; human, in vivo, 20 mg): 16.5 ng/mL | IC50 (SARS-CoV-2 [3]): 11.6 µM

CCOC(=O)C1=C(COCCN)NC(C)=C(C(=O)OC)C1c1ccccc1Cl (stereo not shown) [amlodipine besylate]
anti-SARS-CoV-2 activity by plaque assay (in words) (SARS-CoV-2 [4]): confirmed by plaque assay | Fatal, n (%) [5, 10]: 0 n (%) | Survival, n (%) [5, 10]: 19 (100) n (%) | Fatal (outcome) ([5]; Table 1, number (%) of patients, Amlodipine n = 19): 0 | Admission to ICU ([5]; Amlodipine n = 19): none | Invasive ventilation ([5]; Amlodipine n = 19): none | Admission to ICU [5, 11]: 0 | Invasive ventilation [5, 11]: 0 | Cmax ([2]; volunteers, 5 mg of amlodipine besylate): ~ 4 ng/mL

COC(=O)C1=C(C)NC(C)=C(C(=O)OCCN(C)Cc2ccccc2)C1c1cccc([N+](=O)[O-])c1 (stereo not shown) [nicardipine HCI, nicardipine HCl]
selectivity ratio at 24 h (SARS-CoV-2 [1]): > 7.51 | Cmax ([2]; volunteers, 60 mg nicardipine hydrochloride): 58.4 ng/mL | IC50 (SARS-CoV-2 [3]): 13.3 µM | CC50 at 24 h [6]: > 100 µM

C[C@H](N[C@@H](CCc1ccccc1)C(=O)O)C(=O)N1CCC[C@H]1C(=O)O.O.O [enalaprilat dehydrate]
inhibition of SARS-CoV-2 replication (in words) (SARS-CoV-2 [7]; [12]): did not show any significant inhibition effects

CCN(CC)CCCC(C)Nc1ccnc2cc(Cl)ccc12 (stereo not shown) [CQ, chloroquine]
effect on virus replication, separate or combined application (SARS-CoV-2 [8]): distinct reduction in virus replication

CC(=O)OCOC(=O)CN(CC(=O)OCOC(C)=O)c1ccccc1OCCOc1ccccc1N(CC(=O)OCOC(C)=O)CC(=O)OCOC(C)=O [BAPTA-AM, 1,2-bis(2-aminophenoxy)ethane-N,N,N′,N′-tetraacetic acid tetrakis(acetoxymethyl ester)]
selective index (SI = CC50/IC50) (SARS-CoV-2 [7]; Vero E6 cells): 5.83 | inhibition of SARS-CoV-2 replication (in words) (SARS-CoV-2 [7]; [12]): significantly inhibited virus replication in a concentration-dependent manner | IC50 (SARS-CoV-2 [7]; [13]): 13.9 µM | CC50 (Vero E6 cells): 81.3 µM

COC(=O)C1=C(C)NC(C)=C(C(=O)O[C@@H]2CCCN(Cc3ccccc3)C2)[C@@H]1c1cccc([N+](=O)[O-])c1.Cl [benidipine HCI]
stage of virus infection inhibited (SARS-CoV-2 [9]; Vero E6 cells, MOI 0.05, 24 h p.i., qRT-PCR, western blot, immunofluorescence): mainly inhibit virus infection at a stage after virus entry | effect on virus replication, separate or combined application (SARS-CoV-2 [8]): distinct reduction in virus replication | anti-SARS-CoV-2 activity by plaque assay (in words) (SARS-CoV-2 [4]): confirmed by plaque assay | selective index (SI = CC50/IC50) (SARS-CoV-2 [7]; Vero E6 cells): > 26.25 | IC50 (SARS-CoV-2 [7]; [13]): 3.81 µM | Cmax ([2]; volunteers, 8 mg of benidipine HCI): ~ 4 ng/mL | CC50 (Vero E6 cells): > 100 µM

CCOC(=O)[C@H](CCc1ccccc1)N[C@@H](C)C(=O)N1CCC[C@H]1C(=O)O [enalapril maleate]
inhibition of SARS-CoV-2 replication (in words) (SARS-CoV-2 [7]; [12]): did not show any significant inhibition effects

NCCOB(c1ccccc1)c1ccccc1 [2ABP, 2-aminoethyl diphenylborinate]
stage of virus infection inhibited (SARS-CoV-2 [9]): mainly inhibit virus infection at a stage after virus entry | inhibition of SARS-CoV-2 replication (in words) (SARS-CoV-2 [7]): significantly inhibited virus replication in a concentration-dependent manner | selectivity ratio (SARS-CoV-2 [1]): > 8.26 | IC50 (SARS-CoV-2 [3]): 24.2 µM | CC50 at 24 h [6]: > 200 µM

CCCCC(=O)N(Cc1ccc(-c2ccccc2-c2nnn[nH]2)cc1)[C@H](C(=O)O)C(C)C [valsartan]
inhibition of SARS-CoV-2 replication (in words) (SARS-CoV-2 [7]; [12]): did not show any significant inhibition effects

COC(=O)C1=C(C)NC(C)=C(C(=O)OC)C1c1ccccc1[N+](=O)[O-] [nifedipine]
case fatality rate (CFR) ([5]; COVID-19 patients with hypertension as only comorbidity, by antihypertensive drug received): 14.3% | Fatal, n (%) [5, 10]: 2 (14.3) n (%)

CCCCc1nc(Cl)c(CO)n1Cc1ccc(-c2ccccc2-c2nn[nH]n2)cc1 [losartan potassium]
inhibition of SARS-CoV-2 replication (in words) (SARS-CoV-2 [7]; [12]): did not show any significant inhibition effects
